Patent publication US20240307362A1 (priority 2019, published 2024)
Several values for one entry are separate records, joined by “and”; a condition that tells them apart may be missing. Equal entries are not always repeated. Where two headings read alike, the source gives them in different places.

What was measured:
Ba/F3-EGFR-insSVD = assay: Ba/F3 cell survival assay, EGFR-insSVD; type: cell-based
Procedure: (§1) 293T cells from ATCC were transfected with pBABEpuro expression constructs for WT EGFR or EGFR-insSVD and pCL-Eco packaging vector using Fugene-6 transfection reagent from Promega. Plates were incubated at 37° C. for 48 h. Retrovirus was harvested by filtering the media supernatant through a 0.45 μm filter.
(§2) Ba/F3 cells purchased from DSMZ were grown in RPMI+10% FBS+10 ng/mL IL-3 and infected with filtered retroviral supernatant at a 1:2 dilution. Polybrene was added to a concentration of 8 μg/mL, plates were spun for 90 min, and incubated overnight at 37° C. 2 μg/mL puromycin was added to the infected cells 24 h after infection and cells were continually grown in the presence of puromycin and 10 ng/mL IL-3. Following stably expressing Ba/F3 cell lines were generated: Ba/F3-EGFR-WT, Ba/F3-EGFR-insSVD, (Ba/F3-vector-control).
For cell survival assays, Ba/F3 cells were grown to a density of 1-2 million cells per mL, spun down and resuspended in media without IL-3, and replated at a concentration 200,000-500,000 cells per mL. The cells ectopically expressing WT EGFR or EGFR-insSVD were plated with 10 ng/mL Millipore Culture grade EGF. The cells ectopically expressing pBABEpuro empty vector were plated with 10 ng/mL IL-3.
2 days later, cells were plated in 50 μL in a 384 well plate at a concentration of 4000 cells per well for cells assayed in the absence of IL-3 and 2000 cells per well for cells assayed in the presence of IL-3. 100 nL of compound was added to each well using a 100 nL pin head, and plates were incubated at 37° C. for 48 h.
Cell viability was measured by adding 20 μL of Cell Titer-Glo Luminescent Cell Viability Reagent diluted 1:3 in PBS. Plates were sealed with Perkin Elmer Top-Seal, inverted several times to mix, and immediately centrifuged at 1000 rpm for 2 min. Plates were incubated in low light conditions for 8-10 min and luminescence was measured.

Ba/F3-EGFR-WT = assay: Ba/F3 cell survival assay, WT EGFR; type: cell-based
Procedure: as §1, §2
The cells ectopically expressing WT EGFR or EGFR-insSVD were plated with 10 ng/mL Millipore Culture grade EGF. The cells ectopically expressing pBABEpuro empty vector were plated with 10 ng/mL IL-3.
100 nL of compound was added to each well using a 100 nL pin head, and plates were incubated at 37° C. for 48 h.
Cell viability was measured by adding 20 μL of Cell Titer-Glo Luminescent Cell Viability Reagent diluted 1:3 in PBS. Plates were sealed with Perkin Elmer Top-Seal, inverted several times to mix, and immediately centrifuged at 1000 rpm for 2 min.

human Bub1 = human Bub1 (Homo sapiens (Human), UniProt O43683); assay: Bub1 high ATP kinase assay (TR-FRET); type: biochemical
Sequence of human Bub1 (O43683 704-1085): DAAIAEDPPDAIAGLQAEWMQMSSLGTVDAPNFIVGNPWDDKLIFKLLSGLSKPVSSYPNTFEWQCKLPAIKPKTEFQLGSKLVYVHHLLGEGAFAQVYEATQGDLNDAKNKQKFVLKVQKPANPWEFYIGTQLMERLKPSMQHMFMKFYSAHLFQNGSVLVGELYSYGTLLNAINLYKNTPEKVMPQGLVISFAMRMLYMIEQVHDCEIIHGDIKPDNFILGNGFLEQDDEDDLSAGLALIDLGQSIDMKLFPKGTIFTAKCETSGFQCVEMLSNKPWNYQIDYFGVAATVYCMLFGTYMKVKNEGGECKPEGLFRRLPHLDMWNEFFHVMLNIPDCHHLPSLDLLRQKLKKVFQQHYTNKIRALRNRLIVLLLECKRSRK
From the text: Bub1-inhibitory activity of compounds of the present invention at a high ATP concentration was quantified employing the Bub1 TR-FRET high ATP kinase assay as described in the following paragraphs.
N-terminally His6-tagged recombinant catalytic domain of human Bub1 (amino acids 704-1085), expressed in insect cells (Hi5) and purified by Ni-NTA affinity chromatography and subsequent size exclusion chromatography, was used as enzyme.

[1] = Mus musculus, BaF3, 48 h, read-out: BA/F3 (insSVD) IC50, cell viability, Cell Titer-Glo, 48 h, with 10 ng/mL EGF, without IL-3
[2] = Mus musculus, BaF3, 48 h, read-out: BA/F3 (wild type) IC50, cell viability, Cell Titer-Glo, 48 h, with 10 ng/mL EGF, without IL-3
[3] = read-out: Bub1 high ATP (2 mM) IC50, 2 mM ATP
[4] = read-out: BA/F3 (insSVD) IC50, cell viability, Cell Titer-Glo, 48 h, with 10 ng/mL EGF, without IL-3
[5] = read-out: BA/F3 (wild type) IC50, cell viability, Cell Titer-Glo, 48 h, with 10 ng/mL EGF, without IL-3
[6] = Bub1 high ATP (2 mM) IC50, 2 mM ATP

COc1c(Cl)cccc1Nc1c(-c2ccncc2OCCC2CCO2)[nH]c2c1C(=O)NCC2 (racemic) [Example 24, 3-(3-chloro-2-methoxyanilino)-2-{3-[2-(oxetan-2-yl)ethoxy]pyridin-4-yl}-1,5,6,7-tetrahydro-4H-pyrrolo[3,2-c]pyridin-4-one]
IC50 (Ba/F3-EGFR-insSVD; [1]): 17.5 nM
IC50 (Ba/F3-EGFR-WT; [2]): 636 nM
IC50 (human Bub1; [3]): 2700 nM

COc1c(Cl)cc(F)cc1Nc1c(-c2ccncc2OCC2CCO2)[nH]c2c1C(=O)NCC2 (racemic) [Example 65, 3-(3-chloro-5-fluoro-2-methoxyanilino)-2-(3-{[oxetan-2-yl]methoxy}pyridin-4-yl)-1,5,6,7-tetrahydro-4H-pyrrolo[3,2-c]pyridin-4-one]
IC50 (Ba/F3-EGFR-insSVD; [1]): 89.8 nM
IC50 (Ba/F3-EGFR-WT; [2]): 911 nM
IC50 (human Bub1; [3]): > 20000 nM

CC1(C)COC1COc1cnccc1-c1[nH]c2c(c1Nc1cccc(Cl)c1OC(F)F)C(=O)NCC2 (single isomer, unassigned) [Example 72, 3-[3-chloro-2-(difluoromethoxy)anilino]-2-(3-{[3,3-dimethyloxetan-2-yl]methoxy}pyridin-4-yl)-1,5,6,7-tetrahydro-4H-pyrrolo[3,2-c]pyridin-4-one]
IC50 (Ba/F3-EGFR-insSVD; [4]): 436 nM
IC50 (Ba/F3-EGFR-WT; [5]): 2740 nM
IC50 (human Bub1; [6]): > 20000 nM

COc1c(Cl)cc(F)cc1Nc1c(-c2ccncc2OCC2CCO2)[nH]c2c1C(=O)NCC2 (single isomer, unassigned) [Example 66, 3-(3-chloro-5-fluoro-2-methoxyanilino)-2-(3-{[oxetan-2-yl]methoxy}pyridin-4-yl)-1,5,6,7-tetrahydro-4H-pyrrolo[3,2-c]pyridin-4-one]
IC50 (Ba/F3-EGFR-insSVD; [4]): 140 nM
IC50 (Ba/F3-EGFR-WT; [5]): 1500 nM
IC50 (human Bub1; [6]): > 20000 nM

Cc1cccc(Nc2c(-c3ccncc3OCC3OCC3(C)C)[nH]c3c2C(=O)NCC3)c1Cl (single isomer, unassigned; (-)) [Example 60, (−)-3-(2-chloro-3-methylanilino)-2-{3-[(3,3-dimethyloxetan-2-yl)methoxy]pyridin-4-yl}-1,5,6,7-tetrahydro-4H-pyrrolo[3,2-c]pyridin-4-one]
IC50 (Ba/F3-EGFR-insSVD; [4]): > 1000 nM
IC50 (Ba/F3-EGFR-WT; [5]): 2130 nM
IC50 (human Bub1; [3]): 18800 nM and > 20000 nM

Cc1cccc(Nc2c(-c3ccncc3OCC3CCO3)[nH]c3c2C(=O)NCC3)c1Cl (single isomer, unassigned; (+)) [Example 38, (+)-3-(2-chloro-3-methylanilino)-2-{3-[(oxetan-2-yl)methoxy]pyridin-4-yl}-1,5,6,7-tetrahydro-4H-pyrrolo[3,2-c]pyridin-4-one]
IC50 (Ba/F3-EGFR-insSVD; [4]): 48.8 nM
IC50 (Ba/F3-EGFR-WT; [5]): 628 nM
IC50 (human Bub1; [3]): > 20000 nM

CC1(COc2cnccc2-c2[nH]c3c(c2Nc2cccc(Cl)c2OC(F)F)C(=O)NCC3)CCO1 (racemic) [Example 74, 3-[3-chloro-2-(difluoromethoxy)anilino]-2-(3-{[2-methyloxetan-2-yl]methoxy}pyridin-4-yl)-1,5,6,7-tetrahydro-4H-pyrrolo[3,2-c]pyridin-4-one]
IC50 (Ba/F3-EGFR-insSVD; [1]): 134 nM
IC50 (Ba/F3-EGFR-WT; [2]): 1250 nM
IC50 (human Bub1; [3]): > 20000 nM

COc1c(F)cccc1Nc1c(-c2ccncc2OCCC2CCO2)[nH]c2c1C(=O)NCC2 (racemic) [Example 43, 3-(3-fluoro-2-methoxyanilino)-2-{3-[2-(oxetan-2-yl)ethoxy]pyridin-4-yl}-1,5,6,7-tetrahydro-4H-pyrrolo[3,2-c]pyridin-4-one]
IC50 (Ba/F3-EGFR-insSVD; [1]): 11.5 nM
IC50 (Ba/F3-EGFR-WT; [2]): 262 nM
IC50 (human Bub1; [3]): 3500 nM

O=C1NCCc2[nH]c(-c3ccncc3OCCC3CCO3)c(Nc3cccc(Cl)c3Cl)c21 (single isomer, unassigned) [Example 63, 3-(2,3-dichloroanilino)-2-(3-{2-[oxetan-2-yl]ethoxy}pyridin-4-yl)-1,5,6,7-tetrahydro-4H-pyrrolo[3,2-c]pyridin-4-one]
IC50 (Ba/F3-EGFR-insSVD; [1]): 31.4 nM
IC50 (Ba/F3-EGFR-WT; [2]): 567 nM
IC50 (human Bub1; [3]): 5510 nM

COc1c(F)cccc1Nc1c(-c2ccncc2OCC2CCO2)[nH]c2c1C(=O)NCC2 (racemic) [Example 4, 3-(3-fluoro-2-methoxyanilino)-2-{3-[(oxetan-2-yl)methoxy]pyridin-4-yl}-1,5,6,7-tetrahydro-4H-pyrrolo[3,2-c]pyridin-4-one]
IC50 (Ba/F3-EGFR-insSVD; [1]): 59.3 nM
IC50 (Ba/F3-EGFR-WT; [2]): 939 nM
IC50 (human Bub1; [3]): 17400 nM

CCC1(COc2cnccc2-c2[nH]c3c(c2Nc2cccc(Cl)c2OC)C(=O)NCC3)COC1 [Example 22, 3-(3-chloro-2-methoxyanilino)-2-{3-[(3-ethyloxetan-3-yl)methoxy]pyridin-4-yl}-1,5,6,7-tetrahydro-4H-pyrrolo[3,2-c]pyridin-4-one]
IC50 (Ba/F3-EGFR-insSVD; [1]): 57.2 nM
IC50 (Ba/F3-EGFR-WT; [2]): 852 nM
IC50 (human Bub1; [3]): 3830 nM

COc1c(F)cccc1Nc1c(-c2ccncc2OCC2OCC2(C)C)[nH]c2c1C(=O)NCC2 (single isomer, unassigned; (+)) [Example 54, (+)-2-{3-[(3,3-dimethyloxetan-2-yl)methoxy]pyridin-4-yl}-3-(3-fluoro-2-methoxyanilino)-1,5,6,7-tetrahydro-4H-pyrrolo[3,2-c]pyridin-4-one]
IC50 (Ba/F3-EGFR-insSVD; [4]): 30.9 nM
IC50 (Ba/F3-EGFR-WT; [5]): 498 nM
IC50 (human Bub1; [3]): > 20000 nM

O=C1NCCc2[nH]c(-c3ccncc3OCCC3CCO3)c(Nc3cccc(Cl)c3Cl)c21 (single isomer, unassigned) [Example 64, 3-(2,3-dichloroanilino)-2-(3-{2-[oxetan-2-yl]ethoxy}pyridin-4-yl)-1,5,6,7-tetrahydro-4H-pyrrolo[3,2-c]pyridin-4-one]
IC50 (Ba/F3-EGFR-insSVD; [4]): 23 nM
IC50 (Ba/F3-EGFR-WT; [5]): 726 nM
IC50 (human Bub1; [6]): 5380 nM

COc1c(Cl)cccc1Nc1c(-c2ccncc2OCC2(C)CCO2)[nH]c2c1C(=O)NCC2 (single isomer, unassigned; (-)) [Example 47, (−)-3-(3-chloro-2-methoxyanilino)-2-{3-[(2-methyloxetan-2-yl)methoxy]pyridin-4-yl}-1,5,6,7-tetrahydro-4H-pyrrolo[3,2-c]pyridin-4-one]
IC50 (Ba/F3-EGFR-insSVD; [4]): 96.4 nM
IC50 (Ba/F3-EGFR-WT; [5]): 975 nM
IC50 (human Bub1; [3]): 8860 nM

Cc1c(Cl)cc(F)cc1Nc1c(-c2ccncc2OCC2CCO2)[nH]c2c1C(=O)NCC2 (racemic) [Example 40, 3-(3-chloro-5-fluoro-2-methylanilino)-2-{3-[(oxetan-2-yl)methoxy]pyridin-4-yl}-1,5,6,7-tetrahydro-4H-pyrrolo[3,2-c]pyridin-4-one]
IC50 (Ba/F3-EGFR-insSVD; [1]): 115 nM
IC50 (Ba/F3-EGFR-WT; [2]): 2980 nM
IC50 (human Bub1; [3]): 10500 nM

COc1c(Br)cccc1Nc1c(-c2ccncc2OCC2CCO2)[nH]c2c1C(=O)NCC2 (single isomer, unassigned) [Example 34, 3-(3-bromo-2-methoxyanilino)-2-{3-[(oxetan-2-yl)methoxy]pyridin-4-yl}-1,5,6,7-tetrahydro-4H-pyrrolo[3,2-c]pyridin-4-one]
IC50 (Ba/F3-EGFR-insSVD; [4]): 20.4 nM
IC50 (Ba/F3-EGFR-WT; [5]): 519 nM
IC50 (human Bub1; [6]): > 20000 nM

COc1c(F)cccc1Nc1c(-c2ccncc2OCCC2CCO2)[nH]c2c1C(=O)NCC2 (single isomer, unassigned) [Example 44, 3-(3-fluoro-2-methoxyanilino)-2-{3-[2-(oxetan-2-yl)ethoxy]pyridin-4-yl}-1,5,6,7-tetrahydro-4H-pyrrolo[3,2-c]pyridin-4-one]
IC50 (Ba/F3-EGFR-insSVD; [1]): 34.1 nM
IC50 (Ba/F3-EGFR-WT; [2]): 903 nM
IC50 (human Bub1; [6]): > 20000 nM

Cc1c(Cl)cccc1Nc1c(-c2ccncc2OCC2CCO2)[nH]c2c1C(=O)NCC2 (racemic) [Example 7, 3-(3-chloro-2-methylanilino)-2-{3-[(oxetan-2-yl)methoxy]pyridin-4-yl}-1,5,6,7-tetrahydro-4H-pyrrolo[3,2-c]pyridin-4-one]
IC50 (Ba/F3-EGFR-insSVD; [1]): 48.2 nM
IC50 (Ba/F3-EGFR-WT; [2]): 820 nM
IC50 (human Bub1; [3]): 2630 nM
